# How the values were obtained:
# [1] = system: Botrytis cinerea; assay: Contact evaluation (microtiter plate); type: cell-based
# Procedure: (§1) Compound solution: Contact evaluations were conducted to determine the anti-fungal activity of each compound against Botrytis cinerea, Sclerotinia sclerotiorum, Pythium aphanidermatum, Rhizoctonia solani, Cercospora arachidicola, Mycosphaerella fijiensis, and Monilinia laxa. Five milligrams of each compound were dissolved in 0.5 milliliter of DMSO for a compound stock solution of 1.0% w/v. Compound stock solutions were serial diluted with DMSO to 20, 10, and 2 ppm final well concentration.
# (§2) Fungi preparation: Botrytis cinerea spores were taken from 6-week-old cultures grown at 22 C on full strength potato dextrous agar (PDA) plates. Sclerotinia sclerotiorum, Pythium aphanidermatum, Rhizoctonia solani, and Monilinia laxa mycelia were taken from 4- to 10-day-old shake flask cultures grown at room temperature on full strength potato dextrous broth (PDB). Cercospora arachidicola mycelia were taken from 10- to 14-day-old shake flask cultures grown at room temperature on a full strength PDB amended with peanut oil. Mycosphaerella fijiensis mycelia were taken from 10- to 14-day-old shake flask cultures grown at room temperature on V8 juice broth. Sclerotinia sclerotiorum, Pythium aphanidermatum, Rhizoctonia solani, Cercospora arachidicola, and Mycosphaerella fijiensis mycelia (0.4 g mycelia) were blended for 45 seconds in 20 mL sterile de-ionized water. Monilinia laxa mycelia (1 g mycelia) was blended for 45 seconds in 30 mL of sterile de-ionized water. Botrytis cinerea spores were diluted with quarter strength PDB to 1×10^5 spores/mL final well concentration. All mycelia were diluted in water (1:5 mycelia:water) before distributing into the wells.
# (§3) Microtiter plate preparation: Compound solution (10 :L), quarter strength PDB (900 :L) and fungi preparation (100 :L) were sequentially distributed into 48-well microtiter plates (n=3 replications/compound/rate). A blank consisted of quarter strength PDB and fungi preparation. Commercial fungicide controls (100 ppm diluted with water) consisted of Scala for Botrytis cinerea, Dithane F-45 for Mycosphaerella fijiensis, and Benlate for Sclerotinia sclerotiorum, Pythium aphanidermatum, Rhizoctonia solani, Cercospora arachidicola, and Monilinia laxa. Plates were shaken in a circular rotator at room temperature for 20 minutes, then incubated at 25 C for 24 to 72 hours, depending on the pathogen.
# (§4) Fungal control ratings: Fungal growth in wells containing the compounds were compared to the positive control and fungal inhibition was rated as full, partial, or none. Final readings were the average of the three wells (Table 1).
# [2] = system: Cercospora arachidicola; assay: Contact evaluation (microtiter plate); type: cell-based
# Procedure: as §1, §2, §3, §4
# [3] = system: Monilinia laxa; assay: Contact evaluation (microtiter plate); type: cell-based
# Procedure: as §1, §2, §3, §4
# [4] = system: Mycosphaerella fijiensis; assay: Contact evaluation (microtiter plate); type: cell-based
# Procedure: as §1, §2, §3, §4
# [5] = system: Pythium aphanidermatum; assay: Contact evaluation (microtiter plate); type: cell-based
# Procedure: as §1, §2, §3, §4
# [6] = system: Rhizoctonia solani; assay: Contact evaluation (microtiter plate); type: cell-based; conditions: Rhizoctinia solani
# Procedure: as §1, §2, §3, §4
# [7] = system: Sclerotinia sclerotiorum; assay: Contact evaluation (microtiter plate); type: cell-based; conditions: Sclerotinia sclerotionum
# Procedure: as §1, §2, §3, §4
# [8] = system: Botrytis cinerea; assay: Detached bean leaf bioassay, fungal control; type: in vivo; conditions: 200 ppm on detached bean leaf; 100 minus percent necrotic area, three days after inoculation
# Procedure: Compound solution: Compound solutions were prepared by diluting compound stock solutions (1.0% w/v compound in DMSO) to 200 ppm with 0.01% w/v Triton X-100. Spore solution preparation: Botrytis cinerea spores were taken from 6-week-old cultures grown at 22 C on full strength potato dextrous agar (PDA) plates and harvested in 1:16 frozen orange juice concentrate:water. Botrytis cinerea spore solutions were prepared by diluting spore cultures to 5×10^4 spores/mL with 1:16 frozen orange juice concentrate:water. Plant material: Middle trifoliate leaves of greenhouse grown Phaseolus vulgaris (Bush bean cv. Blue Lake 274) were excised and placed on a plastic grid above a tray containing moist towels. Treatment method: One half of the adaxial surface of the leaf was treated with the compound solution (100 :L) using a 3 cm Bacti Cell Spreader. A blank consisted of 0.01% w/v Triton X-100. A commercial fungicide control (200 ppm diluted with water) consisted of Scala. […] Fungal control rating: Three days after inoculation with Botrytis, the percent necrotic area under the inoculation droplet was determined. Since the areas under the blank (0.01% w/v Triton X-100) were 100% infected, fungal control was expressed as 100 minus the percent necrotic area, and thus 0% infected is 100% fungal control (n=3 leaves/compound, 5 inoculation droplets/leaf, Table 2).
# [9] = system: Phaseolus vulgaris (Bush bean cv. Blue Lake 274) leaves; assay: Detached bean leaf bioassay, phytotoxicity rating; type: in vivo; conditions: 200 ppm on detached bean leaf; rated no, slight, moderate or excessive phytotoxicity
# Procedure: Compound solution: Compound solutions were prepared by diluting compound stock solutions (1.0% w/v compound in DMSO) to 200 ppm with 0.01% w/v Triton X-100. Plant material: Middle trifoliate leaves of greenhouse grown Phaseolus vulgaris (Bush bean cv. Blue Lake 274) were excised and placed on a plastic grid above a tray containing moist towels. Treatment method: One half of the adaxial surface of the leaf was treated with the compound solution (100 :L) using a 3 cm Bacti Cell Spreader. A blank consisted of 0.01% w/v Triton X-100. A commercial fungicide control (200 ppm diluted with water) consisted of Scala. After the solutions dried, the trays containing the leaves were covered and held one day in a growth chamber (22 C). The adaxial surfaces of the leaves were then inoculated with 5-60 :L droplets of Botrytis cinerea spore solution. Phytotoxicity ratings: Phytotoxicity was rated as 0=no phytotoxicity, 1=slight phytotoxicity, 2=moderate phytotoxicity, or 3=excessive phytotoxicity (Table 2).
smiles,measurement,setting,value
"OCCOc1c(Br)cc(Br)c2cccnc12 [Example 1, 5,7-dibromo-8-(2-hydroxyethoxy) quinoline]","Control of fungi (full, partial, none)",[1]; fungicide rate 2 ppm,Partial
same,"Control of fungi (full, partial, none)",[1]; fungicide rate 10 ppm,Full
same,"Control of fungi (full, partial, none)",[1]; fungicide rate 20 ppm,Full
same,"Control of fungi (full, partial, none)",[2]; fungicide rate 2 ppm,None
same,"Control of fungi (full, partial, none)",[2]; fungicide rate 10 ppm,Full
same,"Control of fungi (full, partial, none)",[2]; fungicide rate 20 ppm,Full
same,"Control of fungi (full, partial, none)",[3]; fungicide rate 2 ppm,Full
same,"Control of fungi (full, partial, none)",[3]; fungicide rate 10 ppm,Full
same,"Control of fungi (full, partial, none)",[3]; fungicide rate 20 ppm,Full
same,"Control of fungi (full, partial, none)",[4]; fungicide rate 2 ppm,Full
same,"Control of fungi (full, partial, none)",[4]; fungicide rate 10 ppm,Full
same,"Control of fungi (full, partial, none)",[4]; fungicide rate 20 ppm,Full
same,"Control of fungi (full, partial, none)",[5]; fungicide rate 2 ppm,Full
same,"Control of fungi (full, partial, none)",[5]; fungicide rate 10 ppm,Full
same,"Control of fungi (full, partial, none)",[5]; fungicide rate 20 ppm,Full
same,"Control of fungi (full, partial, none)",[6]; fungicide rate 2 ppm,Full
same,"Control of fungi (full, partial, none)",[6]; fungicide rate 10 ppm,Full
same,"Control of fungi (full, partial, none)",[6]; fungicide rate 20 ppm,Full
same,"Control of fungi (full, partial, none)",[7]; fungicide rate 2 ppm,Full
same,"Control of fungi (full, partial, none)",[7]; fungicide rate 10 ppm,Full
same,"Control of fungi (full, partial, none)",[7]; fungicide rate 20 ppm,Full
same,Botrytis cinerea control (200 ppm),[8],100%
same,Phytotoxity (200 ppm),[9],Slight
same,melting point,,128 to 131 °C
